In assay [1] the target is T1, PDZ2 domain of human tyrosine phosphatase 1E (hPTP1E) (Homo sapiens, UniProt Q12923).
T1 construct: the constructs used for the PDZ2 domain of human tyrosine phosphatase 1E; polyhistidine (N); made in house; host or cells: Escherichia coli BL21 (DE3)
T1 sequence (Q12923 1368-1452 limits assumed): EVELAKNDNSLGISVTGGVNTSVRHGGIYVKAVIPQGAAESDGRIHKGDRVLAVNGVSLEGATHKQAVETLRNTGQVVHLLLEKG
Kind of assay: CIDNP-KD ligand titration (photo-CIDNP hyperpolarized NMR). Format: binding. An excerpt:
For both STD-NMR and CIDNP-KD, there is an initial buildup of the signal at the start of the irradiation. However, the mechanisms underlying it and, thus, the kinetics of the signal buildup are different between the techniques. In STD-NMR, the saturation of L starts to build up as soon as the irradiation of the protein begins because preformed PL complexes can be immediately saturated. However, in CIDNP-KD, the preformed PL complexes are not CIDNP-active. Therefore, a free L must first be hyperpolarized and then bind to P before any signal reduction is observable. Therefore, we will use the AF(ti) corresponding to the steady state in contrast to STD-NMR, where one needs to measure the initial growth of the amplification factor to account for the ligand rebinding effects, which are significant at low ligand-to-protein ratios;[7] there is no need for an initial amplification factor in CIDNP-KD. During the photo-CIDNP process, only 0.1–1% of the ligand becomes hyperpolarized such that even at low ligand-to-protein ratios, the rebinding of L* is not a significant factor. Therefore, one needs to only assess the time to reach a steady-state amplification factor AFss, whose value is measured at a series of ligand concentrations, and then fit eq 5 to determine the proportionality factor α and the dissociation constant KD (Figure 1D,E) [drawing 5] 5 Affinities are obtained with the CIDNP-KD method as follows. The ligand of interest and the photosensitizer are prepared as titration series in the presence and absence of the target protein (Figure 1A) and measured with the Cryolight setup (Figure 1B,[23]), which allows the automatization with an autosampler. The photo-CIDNP signal builds up within 2 s (Figure 1C). It allows us to measure the irradiation time-dependent photo-CIDNP buildup of the ligand NMR signal in the presence and absence of protein in under a minute per sample (Figure S1A). These signal intensities are converted into AF(ti) with eq 4 (Figure S1B), giving an individual titration data point in the corresponding ligand titration curve (Figure S1C). The experiment is repeated at different ligand concentrations to build the titration curve fitted using eq 5, yielding the KD (Figure 1E,F). The entire measurement of all the photo-CIDNP spectra of 7 titration points (14 measurements) takes about 7 min in measurement time, plus the time to exchange the samples with the autosampler (Figure 1D).
Figure 2 presents the CIDNP-KD titration curves for each peptide with 20 μM PDZ2 in (A) and 10 μM PDZ2 in (B to D). The curves were obtained using the workflow described in the introduction for each proton of tryptophan that has sufficient photo-CIDNP signal enhancement and signal reduction upon binding (Figure S2).
Figure 2 Affinity determination of different peptides binding to the hPDZ2 domain by CIDNP-KD within a few minutes. Ligand titration of (A) WSAV, (B) WVSAV, (C) WQVSAV, and (D) WEQVSAV against the human tyrosine phosphatase PDZ2 domain (20 μM for WSAV, 10 μM for others) as described in Figures 1 and S1. The plots contain the titration curves for all protons of the tryptophan residue that undergo signal enhancement through photo-CIDNP and display sufficient quenching upon protein binding. The individual data points are measured with single-scan experiments with laser irradiation durations where t > tss: (A) 1500 ms, (B) 2000 ms, (C) 2000 ms, and (D) 2000 ms.
Expression and purification were carried out as in previously reported procedures. In short, expression in Escherichia coli cells (BL21 (DE3)) and purification via Ni-NTA chromatography as the constructs used for the PDZ2 domain of human tyrosine phosphatase 1E and human PIN1 both contained N-terminal polyhistidine tags. Both protein constructs were measured in an NMR buffer consisting of 50 mM NaCl, 20 mM KPO4, and 10% D2O at pH 6.8. For the control [^1H, ^15N]-HSQC experiments, the PDZ2 domain was expressed in ^15N-enriched minimal medium.[34],[43] […]

Assay [2] has as its target T1, PDZ2 domain of human tyrosine phosphatase 1E (hPTP1E). Kind of assay: 2D [1H,15N]-HSQC chemical shift perturbation titration. Format: binding. The conditions noted are these: 30 μM 15N PDZ2, pH 6.8, 298 K. As for the experimental part:
We compared the affinities of the peptides obtained via CIDNP-KD with the state-of-the-art 2D [^1H, ^15N]-HSQC titration experiments measured with 30 μM PDZ2 (Figure S3).
Expression and purification were carried out as in previously reported procedures. In short, expression in Escherichia coli cells (BL21 (DE3)) and purification via Ni-NTA chromatography as the constructs used for the PDZ2 domain of human tyrosine phosphatase 1E and human PIN1 both contained N-terminal polyhistidine tags. Both protein constructs were measured in an NMR buffer consisting of 50 mM NaCl, 20 mM KPO4, and 10% D2O at pH 6.8. For the control [^1H, ^15N]-HSQC experiments, the PDZ2 domain was expressed in ^15N-enriched minimal medium.[34],[43]
All photo-CIDNP and STD-NMR experiments were recorded at 298 K on a Bruker Avance III HD 600 MHz spectrometer equipped with a cryoprobe. The [^15N, ^1H] – HSQC titration experiments of the PDZ2 domain were performed also at 298 K on another Bruker Avance IIII HD 600 MHz spectrometer equipped with a cryoprobe and SampleJet.
Peak picking was performed with the maximal peak picking tool of Mnova software. Plotting, fitting, and data analysis was done in RStudio with the workflow described above. The [^15N, ^1H]-HSQC reference affinities were analyzed with CCPNMR3.1.[62] The backbone assignment was taken from BMRB 34688.
Fig. S3: 2D [15N, 1H]-HSQC titration of peptides to hPDZ2 domain. The 2D [ 15N, 1H]-
HSQC spectra of the titration series in presence of 30 µM hPDZ2 domain and the
corresponding observed chemical shift difference of A74 plotted versus the peptide
(1 picture or pasted object on this page, not shown here)

Assay [3] concerns the target T2, ENEQVSAV (RA-GEF2) (Homo sapiens).
T2 chain: ENEQVSAV
Kind of assay: competition CIDNP-KD NMR (H4).

For assay [4], the target named is T3, QVSAV (RA-GEF2) (Homo sapiens).
T3 chain: QVSAV
Kind of assay: competition CIDNP-KD NMR (Hβ).

Assay [5] concerns the target T2, ENEQVSAV (RA-GEF2). The assay can be described thus: competition CIDNP-KD NMR (Hβ).
The target in assay [6] is T4, WEQVSAV.
T4 chain: WEQVSAV
The assay can be described thus: CIDNP-KD NMR (H6).

Assay [7] has as its target T5, WQVSAV.
T5 chain: WQVSAV
The assay can be described thus: CIDNP-KD NMR (H4).

Assay [8] addresses T6, WVSAV.
T6 chain: WVSAV
Kind of assay: CIDNP-KD NMR (H4).

The target in assay [9] is T4, WEQVSAV. Kind of assay: CIDNP-KD NMR (H2).
Assay [10] addresses T5, WQVSAV. The assay can be described thus: CIDNP-KD NMR (H2).
Assay [11] has as its target T6, WVSAV. Kind of assay: CIDNP-KD NMR (H2).
Assay [12] deals with T4, WEQVSAV. The assay can be described thus: [1H,15N]-HSQC titration (A74).
For assay [13], the target named is T5, WQVSAV. Kind of assay: [1H,15N]-HSQC titration (A74).
The target in assay [14] is T3, QVSAV (RA-GEF2). Kind of assay: [1H,15N]-HSQC titration (A74).
Assay [15] has as its target T6, WVSAV. Kind of assay: [1H,15N]-HSQC titration (A74).
Assay [16] concerns the target T2, ENEQVSAV (RA-GEF2). Kind of assay: [1H,15N]-HSQC titration (A74).
The target of assay [17] is T4, WEQVSAV. Kind of assay: CIDNP-KD NMR (Hβ).
The target in assay [18] is T5, WQVSAV. The assay can be described thus: CIDNP-KD NMR (Hβ).
The target in assay [19] is T6, WVSAV. Kind of assay: CIDNP-KD NMR (Hβ).
[20] abbreviates: range over Hβ/H2/H4/H6 fits, read-out: CIDNP-KD affinity, range over the observed tryptophan protons.
Where [21] appears, read: tryptophan H2 signal, 20 μM PDZ2 for WSAV, 10 μM for others, pH 6.8, 298 K, H2 overlaps H6 for WVSAV and WQVSAV, read-out: CIDNP-KD, H2.
[22] abbreviates: tryptophan H4 signal, 20 μM PDZ2 for WSAV, 10 μM for others, pH 6.8, 298 K, read-out: CIDNP-KD, H4.
Where [23] appears, read: tryptophan H6 signal, 20 μM PDZ2 for WSAV, 10 μM for others, pH 6.8, 298 K, read-out: CIDNP-KD, H6.
Where [24] appears, read: tryptophan Hβ signal, 20 μM PDZ2 for WSAV, 10 μM for others, 25 μM fluorescein, 450 nm, 50 mM NaCl, 20 mM KPO4, 10% D2O, pH 6.8, 298 K, single-scan, steady state, fit ± error, read-out: CIDNP-KD, Hβ.
The mark [25] stands for this setting: 15N–1H moiety of A74, read-out: [1H,15N]-HSQC–CSP KD, NH of A74.
The mark [26] stands for this setting: range over residues, read-out: [1H,15N]-HSQC–CSP KD range of all residues showing chemical shift perturbation.

Residues, ends and D or L forms follow the SMILES beside them.

For the molecule `CC(C)[C@H](NC(=O)[C@H](C)NC(=O)[C@H](CO)NC(=O)[C@@H](NC(=O)[C@H](CCC(N)=O)NC(=O)[C@H](CCC(=O)O)NC(=O)[C@@H](N)Cc1c[nH]c2ccccc12)C(C)C)C(=O)O` [WEQVSAV] (H-WEQVSAV-OH), the Kd in assay [1] (setting [20]) was 55 to 82 µM; in [1] (setting [21]) it was 63 ± 28 µM; in assay [1] (setting [22]), 63 ± 16 µM; in [1] (setting [23]) it was 55 ± 17 µM; in assay [1] (setting [24]), 82 ± 33 µM; in assay [2] (setting [25]), 16 ± 5 µM. Besides, the Kd in assay [2] (setting [26]) lay in the range of 10 to 70 µM.
As to `CC(C)[C@H](NC(=O)[C@H](C)NC(=O)[C@H](CO)NC(=O)[C@@H](N)Cc1c[nH]c2ccccc12)C(=O)O` [WSAV] (H-WSAV-OH), the Kd in [1] (setting [20]) was 3100 to 3300 µM; in [1] (setting [21]), 3300 ± 2300 µM; in [1] (setting [22]) it was 3100 ± 1500 µM; in assay [1] (setting [23]), 3100 ± 3200 µM; in assay [2] (setting [25]) it was 1320 ± 160 µM; in assay [2] (setting [26]) it was 200 to 4000 µM.
Turning to `CC(C)[C@H](NC(=O)[C@H](C)NC(=O)[C@H](CO)NC(=O)[C@@H](NC(=O)[C@H](CCC(N)=O)NC(=O)[C@@H](N)Cc1c[nH]c2ccccc12)C(C)C)C(=O)O` [WQVSAV] (H-WQVSAV-OH), the Kd in assay [1] (setting [20]) is 19 to 200 µM; in assay [1] (setting [21]), 74 ± 14 µM; in [1] (setting [22]) it was 230 ± 30 µM; in [1] (setting [24]) it was 27 ± 16 µM; in [2] (setting [25]), 68 ± 11 µM; in assay [2] (setting [26]), 20 to 280 µM.
For the molecule `CC(C)[C@H](NC(=O)[C@H](C)NC(=O)[C@H](CO)NC(=O)[C@@H](NC(=O)[C@@H](N)Cc1c[nH]c2ccccc12)C(C)C)C(=O)O` [WVSAV] (H-WVSAV-OH), the Kd in assay [1] (setting [20]) is 80 to 330 µM; in assay [1] (setting [21]) it was 80 ± 60 µM; in assay [1] (setting [22]), 330 ± 80 µM; in assay [1] (setting [24]), 170 ± 40 µM; in assay [2] (setting [25]) it was 108 ± 10 µM; in assay [2] (setting [26]) it was 50 to 400 µM.

B1: PDZ2 domain of human tyrosine phosphatase 1E (hPTP1E) PDZ2 (protein)
chain: DIFEVELAKNDNSLGISVTGGVNTSVRHGGIYVKAVIPQGAAESDGRIHKGDRVLAVNGVSLEGATHKQAVETLRNTGQVVHLLLEKGQSP
For the molecule B1, the Kd turned out to be 91 µM in assay [3]; 580 µM in [4]; 35 µM in assay [5]; 55 µM in [6]; 230 µM in [7]; 330 µM in assay [8]. Further, the Kd in [9] worked out at 63 µM; in assay [10], 74 µM; in [11], 80 µM; in assay [12] it was 16 µM; in assay [13], 68 µM; in assay [14], 155 µM. Besides, the Kd in [15] turned out to be 108 µM; in assay [16], 17 µM; in assay [17], 82 µM; in assay [18], 27 µM; in assay [19], 170 µM.
